Laboratory results as given in paper PMC5843908, “Detection of PRMT1 inhibitors with stopped flow fluorescence” (Signal Transduction and Targeted Therapy, 2018).
Read-outs that look alike come from different tables or passages of the source.

Experiments:
CARM1 = system: CARM1; set-up: method as in PMID 24564570; conditions: cited from earlier work
PRMT1 [1] = target: T1, PRMT1 (Homo sapiens, UniProt Q99873); assay: Stopped flow fluorescence assay of PRMT1 inhibition ([PRMT1] 0.2 µM, [SAM] 3.5 µM, [H4FL] 0.4 µM); type: biochemical;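 further: Stopped-flow traces of fluorescent H4FL peptide quenched on binding PRMT1 and restored on release, recorded 900 s, averaged over repeated drives and fit to a double-exponential model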
Source text: To obtain the IC50 of a specific inhibitor, the relative activities of the enzyme in presence of different concentrations of the inhibitor are required (equation 1).[37] […] By adding different concentrations of the inhibitor to the reaction mixture, the relative activity of the enzyme can be obtained by normalizing K to the reaction rate without the inhibitor, and then calculate the IC50 value using equation 1. In our stopped flow fluorescence assay, the reaction rate of Phase I and Phase II can be obtained by approximating and deriving the double-exponential equation (equation 2). In Phase I, during a very short period of time (where t is small), the curve is nearly linear, and the exponential equation can be approximately described as F1 = a · (−k1) · t. Therefore, the derivation of F1 equals –k1∙a, which is the slope of Phase I. Similarly, the curve of Phase II at early stage can be approximately described as F2 = b · (−k2) · t. This derivation of F2 equals –k2∙b, which is the slope of Phase II. The slopes at various inhibitor concentrations, normalized to the slope in the absence of inhibitor, can be used to obtain the corresponding relative enzyme activity from which the potency value (IC50) of the inhibitor can be calculated with equation 1.
(§1) In a stopped flow fluorescence assay, the binding of H4FL to PRMT1 (or the PRMT1—cofactor complex) quenches the peptide fluorescence, while release of the peptide restores the fluorescence. […] The widths of the entrance and exit slits of the monochromator were set to 0.5 mm. An equal volume of samples from two syringes was driven into the observation cell for mixing measurements. The H4FL concentration in all experiments was 0.4 μM. […] The fluorescent signal was recorded for 900 seconds, with 10,000 data points in total. Data from four to six drives were collected and averaged for each curve.
After averaging the shot data, the association time courses were fitted to a double-exponential function (equation 2) using GraphPad Prism (CA, USA). […] F is the fluorescence intensity at time t, k1, and k2 are the rate constants for Phase I and Phase II, a is the amplitude of the fluorescence change for k1, and b is the amplitude of the fluorescence change for k2. Simulation curves based on the values of a, b, k1, and k2 at fixed c = 1 were produced using Matlab. The IC50 value of inhibitors is determined by equation 1 using GraphPad Prism (CA, USA).

PRMT5 = system: PRMT5; set-up: method as in PMID 24564570; conditions: cited from earlier work
PRMT6 = system: PRMT6; set-up: method as in PMID 24564570; conditions: cited from earlier work
PRMT1 [2] = conditions: read-out: Km of SAM on H4FL; cited from earlier work
PRMT1 [3] = target: T1, PRMT1
Source text: We plotted the values of a · k1 or −b · k2 against the SAM concentration (Fig. 3c, d).
as §1
After averaging the shot data, the association time courses were fitted to a double-exponential function (equation 2) using GraphPad Prism (CA, USA). […] F is the fluorescence intensity at time t, k1, and k2 are the rate constants for Phase I and Phase II, a is the amplitude of the fluorescence change for k1, and b is the amplitude of the fluorescence change for k2. Simulation curves based on the values of a, b, k1, and k2 at fixed c = 1 were produced using Matlab.

PRMT1 [4] = system: PRMT1; set-up: method as in earlier work; conditions: binary binding to PRMT1; ref 2 (supplement; Feng et al. 2011); cited from earlier work

T1 sequence (Q99873 29-371): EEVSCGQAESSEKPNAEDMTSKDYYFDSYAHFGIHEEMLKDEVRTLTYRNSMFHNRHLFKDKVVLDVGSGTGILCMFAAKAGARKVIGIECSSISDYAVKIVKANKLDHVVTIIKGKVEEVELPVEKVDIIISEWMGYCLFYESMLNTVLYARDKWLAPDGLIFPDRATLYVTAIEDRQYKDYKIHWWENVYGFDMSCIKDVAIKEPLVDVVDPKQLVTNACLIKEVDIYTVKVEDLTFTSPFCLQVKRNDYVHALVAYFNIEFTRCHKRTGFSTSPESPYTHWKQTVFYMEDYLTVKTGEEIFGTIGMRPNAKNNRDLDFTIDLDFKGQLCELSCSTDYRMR

Molecule: N=C(N)c1ccc(-c2ccc(-c3ccc(C(=N)N)cc3)o2)cc1 [DB75, furamidine]
- inhibition selectivity for PRMT1 over CARM1 (CARM1): 42 fold
- mechanism of inhibition suggested by Phase I/Phase II pattern (PRMT1 [1]): substrate-competitive inhibitor
- -b·k2 (slope of Phase II) (PRMT1 [1]; [DB75] 2.5 µM): 0.0008427 ± 1.61e-06 s⁻¹
- a (amplitude, Phase I) (PRMT1 [1]; [DB75] 2.5 µM): 0.1608 ± 3.86E-04
- a·k1 (slope of Phase I) (PRMT1 [1]; [DB75] 2.5 µM): 0.00951 ± 4.83e-05 s⁻¹
- b (amplitude, Phase II) (PRMT1 [1]; [DB75] 2.5 µM): -0.203 ± 1.66E-04
- k1 (rate constant, Phase I) (PRMT1 [1]; [DB75] 2.5 µM): 0.05913 ± 2.65E-04 s^-1
- k2 (rate constant, Phase II) (PRMT1 [1]; [DB75] 2.5 µM): 0.004151 ± 7.18E-06 s^-1
- -b·k2 (slope of Phase II) (PRMT1 [1]; [DB75] 5 µM): 0.0005995 ± 1.19e-06 s⁻¹
- a (amplitude, Phase I) (PRMT1 [1]; [DB75] 5 µM): 0.1114 ± 3.10E-04
- a·k1 (slope of Phase I) (PRMT1 [1]; [DB75] 5 µM): 0.00741 ± 4.25e-05 s⁻¹
- b (amplitude, Phase II) (PRMT1 [1]; [DB75] 5 µM): -0.14 ± 1.20E-04
- k1 (rate constant, Phase I) (PRMT1 [1]; [DB75] 5 µM): 0.06653 ± 3.34E-04 s^-1
- k2 (rate constant, Phase II) (PRMT1 [1]; [DB75] 5 µM): 0.004282 ± 7.68E-06 s^-1
- -b·k2 (slope of Phase II) (PRMT1 [1]; [DB75] 7.5 µM): 0.0005125 ± 1.42e-06 s⁻¹
- a (amplitude, Phase I) (PRMT1 [1]; [DB75] 7.5 µM): 0.1285 ± 3.57E-04
- a·k1 (slope of Phase I) (PRMT1 [1]; [DB75] 7.5 µM): 0.00616 ± 3.66e-05 s⁻¹
- b (amplitude, Phase II) (PRMT1 [1]; [DB75] 7.5 µM): -0.1789 ± 1.33E-04
- k1 (rate constant, Phase I) (PRMT1 [1]; [DB75] 7.5 µM): 0.04791 ± 2.52E-04 s^-1
- k2 (rate constant, Phase II) (PRMT1 [1]; [DB75] 7.5 µM): 0.002865 ± 7.66E-06 s^-1
- -b·k2 (slope of Phase II) (PRMT1 [1]; [DB75] 10 µM): 0.0003506 ± 2.59e-06 s⁻¹
- a (amplitude, Phase I) (PRMT1 [1]; [DB75] 10 µM): 0.06466 ± 3.90E-04
- a·k1 (slope of Phase I) (PRMT1 [1]; [DB75] 10 µM): 0.0024 ± 3.23e-05 s⁻¹
- b (amplitude, Phase II) (PRMT1 [1]; [DB75] 10 µM): -0.07628 ± 3.14E-04
- k1 (rate constant, Phase I) (PRMT1 [1]; [DB75] 10 µM): 0.03706 ± 4.47E-04 s^-1
- k2 (rate constant, Phase II) (PRMT1 [1]; [DB75] 10 µM): 0.004596 ± 2.82E-05 s^-1
- -b·k2 (slope of Phase II) (PRMT1 [1]; [DB75] 20 µM): 0.00011 ± 4.39e-06 s⁻¹
- a (amplitude, Phase I) (PRMT1 [1]; [DB75] 20 µM): 0.02855 ± 5.16E-04
- a·k1 (slope of Phase I) (PRMT1 [1]; [DB75] 20 µM): 0.000854 ± 2.84e-05 s⁻¹
- b (amplitude, Phase II) (PRMT1 [1]; [DB75] 20 µM): -0.01837 ± 5.38E-04
- k1 (rate constant, Phase I) (PRMT1 [1]; [DB75] 20 µM): 0.02992 ± 8.36E-04 s^-1
- k2 (rate constant, Phase II) (PRMT1 [1]; [DB75] 20 µM): 0.005985 ± 1.62E-04 s^-1
- -b·k2 (slope of Phase II) (PRMT1 [1]; [DB75] 40 µM): 0 s⁻¹
- a (amplitude, Phase I) (PRMT1 [1]; [DB75] 40 µM): 0.009937 ± 5.73E-04
- a·k1 (slope of Phase I) (PRMT1 [1]; [DB75] 40 µM): 0.00133 ± 0.000128 s⁻¹
- k1 (rate constant, Phase I) (PRMT1 [1]; [DB75] 40 µM): 0.1335 ± 1.03E-02 s^-1
- inhibition of Phase II (PRMT1 [1]; [DB75] above 10 µM): almost fully inhibited
- inhibition selectivity for PRMT1 over PRMT5 (PRMT5): more than 15 fold
- inhibition selectivity for PRMT1 over PRMT6 (PRMT6): 30 fold

Molecule: C[S+](CC[C@H](N)C(=O)[O-])C[C@H]1O[C@@H](n2cnc3c(N)ncnc32)[C@H](O)[C@@H]1O (stereo partly drawn) [SAM, S-adenosylmethionine]
- Km (PRMT1 [2]): 3.1 ± 0.46 µM
- -b·k2 (slope of Phase II) (PRMT1 [3]; [SAM] 1.5 µM): 0.0002 ± 9.72e-07 s⁻¹
- a (amplitude, Phase I) (PRMT1 [3]; [SAM] 1.5 µM): 0.0482 ± 2.31E-04
- a·k1 (slope of Phase I) (PRMT1 [3]; [SAM] 1.5 µM): 0.00212 ± 2.2e-05 s⁻¹
- b (amplitude, Phase II) (PRMT1 [3]; [SAM] 1.5 µM): -0.07363 ± 8.97E-05
- k1 (rate constant, Phase I) (PRMT1 [3]; [SAM] 1.5 µM): 0.04402 ± 4.06E-04 s^-1
- k2 (rate constant, Phase II) (PRMT1 [3]; [SAM] 1.5 µM): 0.002713 ± 1.28E-05 s^-1
- -b·k2 (slope of Phase II) (PRMT1 [3]; [SAM] 3.5 µM): 0.000878 ± 2.58e-06 s⁻¹
- a (amplitude, Phase I) (PRMT1 [3]; [SAM] 3.5 µM): 0.0846 ± 3.83E-04
- a·k1 (slope of Phase I) (PRMT1 [3]; [SAM] 3.5 µM): 0.00678 ± 6.58e-05 s⁻¹
- b (amplitude, Phase II) (PRMT1 [3]; [SAM] 3.5 µM): -0.1161 ± 2.14E-04
- k1 (rate constant, Phase I) (PRMT1 [3]; [SAM] 3.5 µM): 0.08016 ± 6.88E-04 s^-1
- k2 (rate constant, Phase II) (PRMT1 [3]; [SAM] 3.5 µM): 0.007565 ± 1.73E-05 s^-1
- -b·k2 (slope of Phase II) (PRMT1 [3]; [SAM] 7.5 µM): 0.00141 ± 4.46e-06 s⁻¹
- a (amplitude, Phase I) (PRMT1 [3]; [SAM] 7.5 µM): 0.1529 ± 1.79E-03
- a·k1 (slope of Phase I) (PRMT1 [3]; [SAM] 7.5 µM): 0.0272 ± 0.000547 s⁻¹
- b (amplitude, Phase II) (PRMT1 [3]; [SAM] 7.5 µM): -0.2054 ± 3.40E-04
- k1 (rate constant, Phase I) (PRMT1 [3]; [SAM] 7.5 µM): 0.1778 ± 2.91E-03 s^-1
- k2 (rate constant, Phase II) (PRMT1 [3]; [SAM] 7.5 µM): 0.006848 ± 1.85E-05 s^-1
- -b·k2 (slope of Phase II) (PRMT1 [3]; [SAM] 15 µM): 0.00313 ± 1.01e-05 s⁻¹
- a (amplitude, Phase I) (PRMT1 [3]; [SAM] 15 µM): 0.1992 ± 2.65E-03
- a·k1 (slope of Phase I) (PRMT1 [3]; [SAM] 15 µM): 0.0493 ± 0.00109 s⁻¹
- b (amplitude, Phase II) (PRMT1 [3]; [SAM] 15 µM): -0.2664 ± 5.21E-04
- k1 (rate constant, Phase I) (PRMT1 [3]; [SAM] 15 µM): 0.2476 ± 4.40E-03 s^-1
- k2 (rate constant, Phase II) (PRMT1 [3]; [SAM] 15 µM): 0.01175 ± 3.03E-05 s^-1

Molecule: acetyl -SGRme2aGKGGKGK(FL)GKGGAKRHRK [H4FLme2]
- koff (PRMT1 [4]): 319 s⁻¹
- kon (PRMT1 [4]): 2.6e+07 M⁻¹ s⁻¹
